Measurements: patent publication US20230277562A1, “USE OF C[…] THE TREATMENT OF SEIZURES ASSOCIATED WITH RARE […] SYNDROMES RELATED TO GENETIC ABNORMALITIES” (GW Research Limited, priority 2020, published 2023)
“Also recorded” adds a separate entry of the source.

Test system: seizures associated with congenital disorder of glycosylation 1P (tonic and myoclonic seizures)
Test: Open label, expanded-access program of botanically derived purified CBD: seizure frequency in a patient with congenital disorder of glycosylation 1P
Type: in vivo, human
Settings: for Seizure frequency, Tonic: baseline 448.0; for Seizure frequency, Myoclonic: baseline 700.0
Method: The subject was required to be on one or more AEDs at stable doses for a minimum of two weeks prior to baseline and to have stable vagus nerve stimulation (VNS) settings and ketogenic diet ratios for a minimum of four weeks prior to baseline.
Dose was then increased weekly by 5 mg/kg/day to a goal of 25 mg/kg/day.
A maximum dose of 50 mg/kg/day could be utilised for the patient if they were tolerating the medication but had not achieved seizure control; the patient had further weekly titration by 5 mg/kg/day.
Modifications were made to concomitant AEDs as per clinical indication.
Seizure frequency, intensity, and duration were recorded by caregivers in a diary during a baseline period of at least 28 days. Changes in seizure frequency relative to baseline were calculated after at least 2 weeks and at defined timepoints of treatment.
Patients may be defined as responders if they had more than 50% reduction in seizure frequency compared to baseline. The percent change in seizure frequency was calculated as follows: […]
The percent change of seizure frequency may be calculated for any time interval where seizure number has been recorded. For the purpose of this example the percent change of seizure frequency for the end of the treatment period was calculated as follows: […]

[1] = Patient 1, 2 weeks, dose CBD 9.1 mg/kg/day
[2] = Patient 1, 4 weeks, dose CBD 18.2 mg/kg/day
[3] = Patient 1, 8 weeks, dose CBD 26.3 mg/kg/day
[4] = Patient 1, 12 weeks, dose CBD 19.0 mg/kg/day
[5] = Patient 1, 16 weeks, dose CBD 13.3 mg/kg/day
[6] = Patient 1, treated for 132 weeks, relative to baseline

## C=C(C)[C@@H]1CCC(C)=C[C@H]1c1c(O)cc(CCCCC)cc1O [CBD, cannabidiol]
[1]
  Seizure frequency, Tonic: 328.0
  Seizure frequency, Myoclonic: 384.0
[2]
  Seizure frequency, Tonic: 231.2
  Seizure frequency, Myoclonic: 424.8
[3]
  Seizure frequency, Tonic: 52.0
  Seizure frequency, Myoclonic: 608.0
[4]
  Seizure frequency, Tonic: 22.8
  Seizure frequency, Myoclonic: 986.0
[5]
  Seizure frequency, Tonic: 20.0
  Seizure frequency, Myoclonic: 1251.2
[6]
  reduction in myoclonic seizures over the treatment period: 72.1%
  reduction in tonic seizures over the treatment period: 57.2%
Patient with congenital disorder of glycosylation 1P
  effect on frequency/number of tonic and myoclonic seizures (in words): effective in reducing the frequency of tonic and myoclonic seizures; also recorded: significantly reduce the number of seizures; also recorded: significant reduction in tonic and myoclonic seizures
